Results reported in US11655232B2 (Celgene Corporation, priority 2003, dated 2023).
Values after ≈ are worked out from the molar mass of the structure shown. Values joined by “and” are separate entries in the source; they are usually repeats but may differ in a detail not shown here. Equal entries are not always repeated. “Also recorded” adds a separate entry of the source. Marks after values point to notes of the source that are not given here.

Tests used:
[1] = Intrinsic dissolution (Woods apparatus); type: physicochemical; conditions: for dissolution rates (estimated) / Final Form of undissolved solids after intrinsic dissolution (XRPD) / Intrinsic Dissolution #2 (rate): HCl buffer pH 1.8, 1% sodium lauryl sulfate; for Final Form of undissolved solids after intrinsic dissolution (XRPD) / Intrinsic Dissolution #1 (rate) / Intrinsic Dissolution #2 (rate): 37° C.; for Average Intrinsic Dissolution Rate: average of experiments #1 and #2; for Intrinsic Dissolution #1 (rate): experiment #1, 900 mL HCl buffer pH 1.8, 1% sodium lauryl sulfate; for Intrinsic Dissolution #1 (rate) / Intrinsic Dissolution #2 (rate): 50 rpm; for Intrinsic Dissolution #2 (rate): experiment #2
Description: Dissolution experiments were carried out in a VanKel VK6010-8 dissolution apparatus equipped with a VK650A heater/circulator. An intrinsic dissolution apparatus (Woods apparatus) was used. Samples were compressed at 1.5 metric tons (1000 psi) for 1 min using the Woods apparatus in a hydraulic press, giving a sample surface of 0.50 cm^2. […] The medium was degassed by vacuum filtration through a 0.22-μm nylon filter disk and maintained at 37° C. The apparatus was rotated at 50 rpm for each experiment. Aliquots were filtered immediately using 0.2-μm nylon syringe filters. In some cases, the undissolved solids were recovered and analyzed by X-ray powder diffraction (XRPD).
(§1) Diffracted radiation was detected by a NaI scintillation detector.

[2] = Moisture sorption/desorption; type: physicochemical
Description: Moisture sorption/desorption data were collected on a VTI SGA-100 moisture balance system. For sorption isotherms, a sorption range of 5 to 95% relative humidity (RH) and a desorption range of 95 to 5% RH in 10% RH increments was used for analysis. The sample was not dried prior to analysis. Equilibrium criteria used for analysis were less than 0.0100 weight percent change in 5 minutes with a maximum equilibration time of 3 hours if the weight criterion was not met. Data were not corrected for the initial moisture content of the samples.

[3] = Temperature/relative humidity stress storage; type: physicochemical; conditions: about 85 days; room temperature/0% RH and 40° C./93% RH
[4] = Compression and grinding, form check by XRPD; type: physicochemical; conditions: compressed into disks in Woods apparatus, 2 metric tons, ground gently
Description: as §1
Approximately 200 mg each of Forms A and B were compressed into disks in the Woods apparatus using 2 metric tons of pressure. The samples were subsequently scraped out, ground gently, and analyzed by XRPD. […] (See Table 7).

[5] = Interconversion slurry experiments
Description: Interconversion experiments were carried out by making slurries containing two forms in a saturated solvent. The slurries were agitated for approximately 7-20 days at ambient temperature. The insoluble solids were recovered by filtration and analyzed using XRPD.

[6] = Equilibrium solubility in dissolution medium; conditions: for Final Form of solids remaining from solubility experiment (XRPD) / Concentration: HCl buffer pH 1.8, 1% sodium lauryl sulfate; for Final Form of solids remaining from solubility experiment (XRPD): final time point
Description: A solid sample of 400-450 mg was stirred in 50 mL of dissolution medium (HCl buffer, pH 1.8, with 1% sodium lauryl sulfate) using a mechanical stir rod. Aliquots were filtered using 0.2-μm nylon syringe filters and immediately diluted 1 mL→50 mL, then 5 mL→25 mL with dissolution medium in Class A glassware, a final dilution factor of 250.
Dissolution and solubility samples solutions were analyzed by a Beckman DU 640 single-beam spectrophotometer. A 1.000-cm quartz cuvette and an analysis wavelength of 228.40 nm were utilized. The detector was zeroed with a cuvette filled with dissolution medium.
XRPD analyses were carried out on a Shimadzu XRD-6000 X-ray powder diffractometer using Cu Kα radiation. The instrument is equipped with a fine focus X-ray tube. The tube power and amperage were set at 40 kV and 40 mA, respectively. The divergence and scattering slits were set at 1° and the receiving slit was set at 0.15 mm. Diffracted radiation was detected by a NaI scintillation detector. A theta-two theta continuous scan at 3°/min (0.4 sec/0.02° step) from 2.5 to 40°2θ was used. A silicon standard was analyzed each day to check the instrument alignment. Samples were packed in an aluminum holder with silicon insert.

Desolvation by heating = type: physicochemical; conditions: about 150° C. for about five minutes
[7] = from 5 to 95% relative humidity

In the case of `Nc1cccc2c1CN(C1CCC(=O)NC1=O)C2=O` (single isomer, unassigned) [Form A, 3-(4-amino-1-oxo-1,3 dihydro-isoindol-2-yl)-piperidine-2,6-dione], the “Cumulative Amount Dissolved per Unit Area” value ([1]; Experiment #1, 5 min) is reported as 5.76 mg/cm2, the “Cumulative Amount Dissolved per Unit Area” value ([1]; Experiment #1, 10 min) is reported as 7.73 mg/cm2 and the “Cumulative Amount Dissolved per Unit Area” value ([1]; Experiment #1, 20 min) is reported as 11.31 mg/cm2. For the same compound, the “Cumulative Amount Dissolved per Unit Area” value ([1]; Experiment #1, 30 min) was 15.59 mg/cm2, the “Cumulative Amount Dissolved per Unit Area” value ([1]; Experiment #1, 45 min) was 21.98 mg/cm2 and the “Cumulative Amount Dissolved per Unit Area” value ([1]; Experiment #1, 60 min) was 27.11 mg/cm2. For the same compound, the “Cumulative Amount Dissolved per Unit Area” value ([1]; Experiment #1, 90 min) was 34.17 mg/cm2, the “Cumulative Amount Dissolved per Unit Area” value ([1]; Experiment #2, 5 min) was 4.50 mg/cm2 and the “Cumulative Amount Dissolved per Unit Area” value ([1]; Experiment #2, 10 min) was 5.22 mg/cm2. The “Cumulative Amount Dissolved per Unit Area” value ([1]; Experiment #2, 20 min) was 7.54 mg/cm2, the “Cumulative Amount Dissolved per Unit Area” value ([1]; Experiment #2, 30 min) was 11.46 mg/cm2 and the “Cumulative Amount Dissolved per Unit Area” value ([1]; Experiment #2, 45 min) was 15.01 mg/cm2. For the same compound, the “Cumulative Amount Dissolved per Unit Area” value ([1]; Experiment #2, 60 min) was 18.38 mg/cm2, the “Cumulative Amount Dissolved per Unit Area” value ([1]; Experiment #2, 90 min) was 24.38 mg/cm2 and the “Cumulative Amount Dissolved per Unit Area” value ([1]; Experiment #2, 120 min) was 30.35 mg/cm2. The “Cumulative Amount Dissolved per Unit Area” value ([1]; Experiment #2, 150 min) was 35.26 mg/cm2, the dissolution rates (estimated) [1] was 0.35 mg/cm²/min and the “Final Form of undissolved solids after intrinsic dissolution (XRPD)” value [1] was “did not change; also recorded: does not indicate a form change”. For the same compound, the “Average Intrinsic Dissolution Rate” value [1] was 0.29^a mg per cm^2 per minute, the “Intrinsic Dissolution #1 (rate)” value [1] was 0.35 mg per cm^2 per minute and the “Intrinsic Dissolution #2 (rate)” value [1] was 0.22 mg per cm^2 per minute and 0.22^a mg per cm^2 per minute. The “true intrinsic dissolution rate (believed)” value ([1]; judged from experiment #1, since #2 disk surface may have converted to Form E) was ~0.35 mg per cm^2 per minute, the “hygroscopicity (summary)” value [2] was “weakly or not hygroscopic” and the “weight lost from start to finish” value ([2]; at 5% relative humidity after drying from 95% back down to 5%) was “about 0.003 % by weight”. For the same compound, the “weight gain on moisture sorption” value [2, 7] was “does not exhibit a significant weight gain”, the “form after stress storage” value [3] was “typically does not convert to a different form” and the “Final Form after pressing (compression and grinding, XRPD)” value [4] was “does not cause a form change”. The “thermodynamic stability among anhydrous polymorphs (summary)” value [5] was “most thermodynamically stable anhydrous polymorph”, the “interconversion / stability in solvent system” value (from here on “interconversion / stability”) ([5]; acetone solvent system) was “can convert to Form C” and the “interconversion / stability” value ([5]; anhydrous solvent systems) was “tends to be stable”. For the same compound, the “interconversion / stability” value ([5]; aqueous solvent systems) was “can convert to Form B”, the interconversion ([5]; water systems, in the presence of Form E) was “tends to convert to Form E” and the “Final Form of solids remaining from solubility experiment (XRPD)” value [6] was “unstable in the medium, converting to Form E”. The Concentration ([6]; time point 7 min, 25° C.) was 6.0 mg/mL and 6.00 mg/mL, the Concentration ([6]; time point 15 min, 25° C.) was 6.11 mg/mL and the Concentration ([6]; time point 30 min, 25° C.) was 6.2 mg/mL and 6.16 mg/mL. For the same compound, the Concentration ([6]; time point 60 min, 25° C.) was 6.10 mg/mL, the Concentration ([6]; time point 90 min, 25° C.) was 5.46 mg/mL and the Concentration ([6]; time point 150 min, 25° C.) was 4.7 mg/mL and 4.73 mg/mL.
In the case of `Nc1cccc2c1CN(C1CCC(=O)NC1=O)C2=O` (single isomer, unassigned) [Form B, 3-(4-amino-1-oxo-1,3 dihydro-isoindol-2-yl)-piperidine-2,6-dione], the “Cumulative Amount Dissolved per Unit Area” value ([1]; Experiment #1, 5 min) is reported as 10.80^b mg/cm2, the “Cumulative Amount Dissolved per Unit Area” value ([1]; Experiment #1, 10 min) is reported as 6.85 mg/cm2 and the “Cumulative Amount Dissolved per Unit Area” value ([1]; Experiment #1, 20 min) is reported as 10.25 mg/cm2. The “Cumulative Amount Dissolved per Unit Area” value ([1]; Experiment #1, 30 min) was 14.35 mg/cm2, the “Cumulative Amount Dissolved per Unit Area” value ([1]; Experiment #1, 45 min) was 20.57 mg/cm2 and the “Cumulative Amount Dissolved per Unit Area” value ([1]; Experiment #1, 60 min) was 25.70 mg/cm2. The “Cumulative Amount Dissolved per Unit Area” value ([1]; Experiment #1, 90 min) was 34.34 mg/cm2, the “Cumulative Amount Dissolved per Unit Area” value ([1]; Experiment #2, 5 min) was 5.04 mg/cm2 and the “Cumulative Amount Dissolved per Unit Area” value ([1]; Experiment #2, 10 min) was 6.12 mg/cm2. For the same compound, the “Cumulative Amount Dissolved per Unit Area” value ([1]; Experiment #2, 20 min) was 7.73 mg/cm2, the “Cumulative Amount Dissolved per Unit Area” value ([1]; Experiment #2, 30 min) was 12.72 mg/cm2 and the “Cumulative Amount Dissolved per Unit Area” value ([1]; Experiment #2, 45 min) was 17.33 mg/cm2. The “Cumulative Amount Dissolved per Unit Area” value ([1]; Experiment #2, 60 min) was 21.93 mg/cm2, the “Cumulative Amount Dissolved per Unit Area” value ([1]; Experiment #2, 90 min) was 31.64 mg/cm2 and the “Cumulative Amount Dissolved per Unit Area” value ([1]; Experiment #2, 120 min) was 41.31 mg/cm2. The “Cumulative Amount Dissolved per Unit Area” value ([1]; Experiment #2, 150 min) was 49.54 mg/cm2, the dissolution rates (estimated) [1] was 0.34 mg/cm²/min and the “Final Form of undissolved solids after intrinsic dissolution (XRPD)” value [1] was “did not change”. The “Average Intrinsic Dissolution Rate” value [1] was 0.34 mg per cm^2 per minute, the “Intrinsic Dissolution #1 (rate)” value [1] was 0.35 mg per cm^2 per minute and the “Intrinsic Dissolution #2 (rate)” value [1] was 0.32 mg per cm^2 per minute. For the same compound, the “weight gain on moisture sorption” value [2, 7] was “does not exhibit a significant weight gain”, the “form after stress storage” value [3] was “does not convert to a different form” and the “Final Form after pressing (compression and grinding, XRPD)” value [4] was “does not cause a form change”. For the same compound, the “interconversion / stability” value ([5]; THF solvent system) was “typically converts to Form A”, the “interconversion / stability” value ([5]; acetone solvent system) was “typically converts to Form C” and the “interconversion / stability” value ([5]; anhydrous solvent systems) was “converts to other forms”. For the same compound, the interconversion ([5]; in the presence of water) was “can convert to Form E”, the “Final Form of solids remaining from solubility experiment (XRPD)” value [6] was “Form B” and the Solubility ([6]; HCl buffer, pH 1.8, with 1% sodium lauryl sulfate, 25° C., estimated) was 5.8 mg/mL (≈ 22.4 mM). For the same compound, the Concentration stabilized ([6]; final three time points (180, 420, 650 min)) was 5.6 to 5.7 mg/mL, the “stability in water (suggested by remaining solids)” value ([6]; slurry in dissolution medium up to 650 min) was “good stability in water” and the Concentration ([6]; time point 7 min, 25° C.) was 1.63 mg/mL. The Concentration ([6]; time point 15 min, 25° C.) was 2.14 mg/mL, the Concentration ([6]; time point 30 min, 25° C.) was 2.33 mg/mL and the Concentration ([6]; time point 60 min, 25° C.) was 2.94 mg/mL. For the same compound, the Concentration ([6]; time point 90 min, 25° C.) was 3.3 mg/mL and 3.34 mg/mL, the Concentration ([6]; time point 180 min, 25° C.) was 5.67 mg/mL and the Concentration ([6]; time point 420 min, 25° C.) was 5.76 mg/mL. For the same compound, the Concentration ([6]; time point 650 min, 25° C.) was 5.61 mg/mL.
For `Nc1cccc2c1CN(C1CCC(=O)NC1=O)C2=O` (stereo not shown) [Form C, 3-(4-amino-1-oxo-1,3 dihydro-isoindol-2-yl)-piperidine-2,6-dione], the “hygroscopicity (summary)” value [2] was “not hygroscopic below about 85% RH”, the weight loss ([2]; at 95% relative humidity) was “about 6.03%” and the “weight gain on moisture sorption” value ([2]; from 5 to 85% relative humidity) was “does not exhibit a significant weight gain”. The “form after heating (desolvation)” value (Desolvation by heating) was “will typically convert to Form A”, the “interconversion / stability” value ([5]; THF solvent system) was “typically converts to Form A” and the “interconversion / stability” value ([5]; acetone solvent system) was “most stable form”. The “interconversion / stability” value ([5]; aqueous solvent systems) was “typically converts to Form E”.
For `Nc1cccc2c1CN(C1CCC(=O)NC1=O)C2=O` (stereo not shown) [Form D, 3-(4-amino-1-oxo-1,3 dihydro-isoindol-2-yl)-piperidine-2,6-dione], the “hygroscopicity (summary)” value [2] was “either weakly or not hygroscopic”, the “weight gain on moisture sorption” value [2, 7] was “does not exhibit a significant weight gain” and the “form after heating (desolvation)” value (Desolvation by heating) was “will typically convert to Form A”. For the same compound, the “interconversion / stability” value ([5]; THF solvent system) was “capable of converting to Form A”.
In the case of `Nc1cccc2c1CN(C1CCC(=O)NC1=O)C2=O` (stereo not shown) [Form H, 3-(4-amino-1-oxo-1,3 dihydro-isoindol-2-yl)-piperidine-2,6-dione], the interconversion ([5]; slurried in water with either Forms A or B, about 14 days) is reported as “can convert to Form E”.
